Structures can show the parent of a compound that is named as a salt. Where two headings read alike, the source gives them in different places. abz = not defined here; dnp = not defined here
Legend:
S. suis = experiment: microbe, parasite or virus in culture; set-up: species or system Streptococcus suis; microtiter broth dilution MIC of natural products against S. suis
Protocol: To find potent Ss-SrtA inhibitors, the 11 natural products listed in S1 Table were selected for experimental validation using purified recombinant Ss-SrtA. […] Using the microtiter broth dilution method, we measured the MIC values of all these natural products to be >500 μM (S1 Table). […] S. suis strains were cultured in Todd–Hewitt broth (THB; Oxoid Ltd.) without shaking or Todd–Hewitt broth agar plates at 37°C with 5% CO2. E. coli and S. aureus strains were grown in Luria-Bertani (LB) medium at 37°C with shaking at 200 rpm or plated on LB agar. If required, cultures were supplemented with antibiotics at the following concentrations: erythromycin, 3 μg ml^−1 for S. aureus; ampicillin, 100 μg ml^−1 for E. coli.

Sortase A (Ss-SrtA) = molecular target: T1, Sortase A (Ss-SrtA) (Streptococcus suis, UniProt Q8VUP7); experiment: fluorescence-quenched peptide (abz-LPATG-dnp) hydrolysis assay with recombinant enzyme; type: biochemical
T1 construct: residues N24-Q235, C-terminal His-tag

Sortase A (Sa-SrtA) [1] = molecular target: T2, Sortase A (Sa-SrtA) (Staphylococcus aureus, UniProt Q2FV99); experiment: SrtA-dependent fluorescent peptide incorporation in live cells, flow cytometry; […] inhibition at […]; type: cell-based
T2 construct: endogenous, S. aureus Newman D2C cells

Sortase A (Sa-SrtA) [2] = molecular target: T2, Sortase A (Sa-SrtA); experiment: as above; type: cell-based; remark: listed apart in the source
Sortase A (Sa-SrtA) [3] = molecular target: T2, Sortase A (Sa-SrtA); experiment: as above; type: cell-based; remark: listed apart in the source
[4] = molecular target: Streptococcus suis sortase A (recombinant, residues N24-Q235 with C-terminal His-tag) (Streptococcus suis)
[5] = Streptococcus suis, read-out: MIC

T1 sequence (Q8VUP7 entry or part of it): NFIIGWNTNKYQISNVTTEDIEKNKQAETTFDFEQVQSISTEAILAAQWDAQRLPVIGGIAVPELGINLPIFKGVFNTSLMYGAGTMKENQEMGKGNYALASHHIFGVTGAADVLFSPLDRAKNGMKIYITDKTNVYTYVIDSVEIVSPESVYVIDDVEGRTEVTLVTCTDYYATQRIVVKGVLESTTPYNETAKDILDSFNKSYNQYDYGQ
T2 sequence (Q2FV99 whole entry): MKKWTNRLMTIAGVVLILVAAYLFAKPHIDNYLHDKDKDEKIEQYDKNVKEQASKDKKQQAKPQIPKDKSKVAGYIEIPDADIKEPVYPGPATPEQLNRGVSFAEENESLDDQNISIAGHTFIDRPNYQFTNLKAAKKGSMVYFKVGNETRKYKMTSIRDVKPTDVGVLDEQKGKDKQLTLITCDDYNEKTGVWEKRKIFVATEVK

| Molecule | MIC (S. suis; [5]) | IC50 (Sortase A (Ss-SrtA)) | other results |
| --- | --- | --- | --- |
| CCCCC[C@H](O)CC(=O)CCc1ccc(O)c(OC)c1 [6-Gingerol] | > 500 µM | – | – |
| O=c1cc(-c2ccccc2)oc2cc(O)c(O)c(O)c12 [Baicalein] | > 500 µM | – | – |
| C[C@@H]1O[C@@H](OC[C@H]2O[C@@H](Oc3c(-c4ccc(O)c(O)c4)oc4cc(O)cc(O)c4c3=O)[C@H](O)[C@@H](O)[C@@H]2O)[C@H](O)[C@H](O)[C@H]1O [Rutin] | > 500 µM | – | – |
| O=c1cc(-c2ccc(O)cc2)oc2c([C@@H]3O[C@H](CO)[C@@H](O)[C@H](O)[C@H]3O)c(O)cc(O)c12 [Vitexin] | – | – | MIC (S. suis; inhibitor): >500 µM |
| COc1c(O)cc(O)c2c(=O)cc(-c3ccccc3)oc12 [Wogonin] | > 500 µM | – | – |
| C[C@@H]1O[C@@H](O[C@@H]2[C@@H](O)[C@H](OCCc3ccc(O)c(O)c3)O[C@H](CO)[C@H]2OC(=O)/C=C/c2ccc(O)c(O)c2)[C@H](O)[C@H](O)[C@H]1O [acteoside] | > 500 µM | 36.3 ± 1.3 µM | inhibition at 200 µM (Sortase A (Sa-SrtA) [1]): 86% |
| O=C(O)[C@H]1O[C@@H](Oc2cc3oc(-c4ccccc4)cc(=O)c3c(O)c2O)[C@H](O)[C@@H](O)[C@@H]1O [baicalin] | > 500 µM | 85.4 ± 1.5 µM | inhibition at 200 µM (Sortase A (Sa-SrtA) [2]): 45% |
| COc1ccc2cc3[n+](cc2c1OC)CCc1cc2c(cc1-3)OCO2 [berberine hydrochloride] | > 500 µM | < 100 µM | – |
| COc1cc(/C=C/C(=O)CC(=O)/C=C/c2ccc(O)c(OC)c2)ccc1O [curcumin] | > 500 µM | < 100 µM | – |
| O=c1c(O[C@@H]2O[C@H](CO)[C@@H](O)[C@H](O)[C@H]2O)c(-c2ccc(O)c(O)c2)oc2cc(O)cc(O)c12 [isoquercitrin] | > 500 µM | – | inhibition at 200 µM (Sortase A (Sa-SrtA) [3]): 28% |
| O=c1c(O)c(-c2ccc(O)c(O)c2)oc2cc(O)cc(O)c12 [quercetin] | > 500 µM | < 100 µM | – |
| abz-LPATG-dnp (reading uncertain; also: printed as abz-LPATG-dnp) [abz-LPATG-dnp (internally quenched fluorescent peptide substrate)] | – | – | Km for the hydrolysis of abz-LPATG-dnp by purified Ss-SrtA (fluorescence increase of the quenched peptide; substrate 0.375-64 μM; 50 mM Tris·HCl, 150 mM NaCl, pH 7.5, 37°C) [4]: 6.7 μM |

From PMC5358767 (PLoS ONE, 2017)
